Laboratory results published in patent US10159268B2, “Reduced sodium food products” (GENERAL MILLS, INC., priority 2013, dated 2018).

Assays:
[1] = Na-solution DAP test: trained panel rates saltiness of compounds in sodium solution; assay type: in vivo; parameters: key: DAP score; >3.1 indicates saltiness or salt enhancement; conditions: single compound in sodium solution; best DAP score of tested concentrations 0.1, 1 and 10 ppm; DAP score greater than 3.1 indicates saltiness or salt enhancement
Procedure: (§1) Briefly, each individual tested compound was placed in water and in sodium solution to test saltiness and saltiness enhancement potential. Tests in water were executed in a compound concentration of 10 ppm. Tests in sodium solution were executed in compound concentrations of 0.1, 1 and 10 ppm. Two control sodium solutions with known organoleptic salt intensities were provided as references for each test. The test for individual compounds was also conducted using simple broth instead of sodium solution. A number of compound combinations identified from the Na-solution DAP test were used for the broth DAP test. Tests were executed with a trained panel of 9-12 assessors. For Na-solution DAP tests, a DAP score of greater than 3.1 indicates saltiness or salt enhancement. The DAP score can be correlated with a sodium reduction potential by subtracting 3.1 from the DAP score. […] For broth DAP tests, a DAP score of greater than 7.6 indicates saltiness or salt enhancement. The DAP score can be correlated with a sodium reduction potential by subtracting 7.6 from the DAP score.

[2] = Broth DAP test: trained panel rates saltiness of compounds in simple broth; assay type: in vivo; parameters: key: DAP score; >7.6 indicates saltiness or salt enhancement in broth; conditions: single compound in simple broth; best DAP score of tested concentrations 0.1, 1 and 10 ppm; DAP score greater than 7.6 indicates saltiness or salt enhancement
Procedure: as §1

## CCCCCCCCCCC[C@H](O)CC(=O)CCc1ccc(O)c(OC)c1 [Compound 1, 12-Gingerol]
[1]
  DAP in Na-Sol.: 3.6
[2]
  DAP in Broth: 7.8

## CCCCCCCCC/C=C/C(=O)CCc1ccc(O)c(OC)c1 [Compound 2, [10]-Shogaol]
[1]
  DAP in Na-Sol.: 3.5
[2]
  DAP in Broth: 7.8

## CCCCCC(CC(CCc1ccc(O)c(OC)c1)OC(C)=O)OC(C)=O (stereo not shown) [Compound 3, [6]-Gingerdiacetate]
[1]
  DAP in Na-Sol.: 4.1
[2]
  DAP in Broth: 8.8

## CCCCC/C=C/C(=O)CCc1ccc(O)c(OC)c1 [Compound 4, 6-Shogaol]
[1]
  DAP in Na-Sol.: 3.5

## CCCCC[C@H](O)CC(=O)CCc1ccc(O)c(OC)c1 [Compound 5, [6]-Gingerol]
[1]
  DAP in Na-Sol.: 3.6

## CCCCCCCCC(=O)CCc1ccc(O)c(OC)c1 [Compound 6, [7]-Paradol]
[1]
  DAP in Na-Sol.: 3.8

## CCCCCCCC(=O)CCc1ccc(O)c(OC)c1 [Compound 7, [6]-Paradol or [6]-Gingerone]
[1]
  DAP in Na-Sol.: 3.7

## CCCCCC(CC(=O)CCc1ccc(O)c(OC)c1)OC (stereo not shown) [Compound 8, 5-methoxy-[6]-Gingerol]
[1]
  DAP in Na-Sol.: 4

## CCCCCCC[C@H](O)CC(=O)CCc1ccc(O)c(OC)c1 [Compound 9, 8-Gingerol]
[1]
  DAP in Na-Sol.: 3.8

## CCC=CC(=O)CCc1ccccc1 [Compound 11, a 1-Ph-4-hepten-3-one]
[1]
  DAP in Na-Sol.: 2.6
[2]
  DAP in Broth: 8.1

## CCC(O)CC(=O)CCc1ccccc1 (stereo not shown) [Compound 12, a 1-Ph-5-OH-3-heptanone]
[1]
  DAP in Na-Sol.: 4
[2]
  DAP in Broth: 7.6

## COc1cc(COC(=O)CCCC/C=C/C(C)C)ccc1O [Compound 13, Capsiate]
[1]
  DAP in Na-Sol.: 3.8
[2]
  DAP in Broth: 7.9

## O=C(/C=C/CC/C=C/c1ccc2c(c1)OCO2)N1CCCCC1 [Compound 14, Pipersintenamide]
[1]
  DAP in Na-Sol.: 3.6

## CC(C)CNC(=O)/C=C/C=C/CCCCCC/C=C/c1ccc2c(c1)OCO2 [Compound 15, Guineensine]
[1]
  DAP in Na-Sol.: 3.5
[2]
  DAP in Broth: 8.1

## CCCCC/C=C\CCCCCCc1cc(=O)c2ccccc2n1C [Compound 17, Evocarpine]
[1]
  DAP in Na-Sol.: 3.6
[2]
  DAP in Broth: 8.2

## O=C(/C=C/C=C/c1ccc2c(c1)OCO2)N1CCCCC1 [Compound 18, Piperine]
[1]
  DAP in Na-Sol.: 3.8
[2]
  DAP in Broth: 8.1

## CCC(O)CC(=O)CCc1ccccc1 (stereo not shown) [Compound 20, a 1-Ph-5-OH-3-heptanone]
[1]
  DAP in Na-Sol.: 4

## COc1cc(CNC(=O)CCCCCCC(C)C)ccc1O [Compound 21, Dihydrocapsaicin]
[1]
  DAP in Na-Sol.: 4

## COc1c(OC)c(OC)c2c(c1OC)c(=O)c1ccccc1n2C [Compound 23, Melicopicine]
[1]
  DAP in Na-Sol.: 2.9
[2]
  DAP in Broth: 8.3

## COc1c(CC=C(C)C)c(=O)n(C)c2c(OC)cccc12 [Compound 25, O-Methylglycosolone]
[1]
  DAP in Na-Sol.: 3.9

## COc1ccc(-c2c(O)c3c(OC)c4c(cc3oc2=O)OC(C)(C)C=C4)cc1 [Compound 26, Robustic acid]
[1]
  DAP in Na-Sol.: 3.4

## COc1c2c(cc3oc(=O)ccc13)OC(C)(C)C=C2 [Compound 27, Xanthoxyletin]
[1]
  DAP in Na-Sol.: 3.4

## COc1cc2oc(=O)ccc2c(OC)c1CC=C(C)C [Compound 28, Toddaculin]
[1]
  DAP in Na-Sol.: 3.6

## C=CC(C)(O)CC[C@@]1(C)C2=C([C@H](OC(C)=O)[C@H](OC(C)=O)[C@H]1C)C(C)(C)CCC2 (stereo partly shown) [Compound 29, Vitetrifolin D]
[1]
  DAP in Na-Sol.: 3.5
[2]
  DAP in Broth: 8.0

## CC(=O)OC1CC(C)C2(CCC3(COC(=O)C3)O2)C2(C)CCCC(C)(C)C12 (stereo not shown) [Compound 30]
[1]
  DAP in Na-Sol.: 3.1

## C[C@@H]1C[C@H]2OC(=O)[C@@]3(C)CCC[C@](C)(C23)[C@@]1(O)CCc1ccoc1 (stereo partly shown) [Compound 31, Marrubin]
[1]
  DAP in Na-Sol.: 3.2

## C=C[C@@]1(C)CC(=O)C2[C@]3(C)C(C[C@@H](O)[C@@]2(O)C1=O)C(C)(C)[C@H](OC(C)=O)[C@H](OC(C)=O)[C@@H]3OC(=O)c1ccccc1 (stereo partly shown) [Compound 32, Orthosiphol I]
[1]
  DAP in Na-Sol.: 3.5
[2]
  DAP in Broth: 8.1

## C=C[C@@]1(C)CC(=O)C2[C@]3(C)C(C[C@@H](OC(C)=O)[C@@]2(O)C1=O)C(C)(C)[C@H](O)[C@H](OC(C)=O)[C@@H]3OC(=O)c1ccccc1 (stereo partly shown) [Compound 33, Orthosiphol M]
[1]
  DAP in Na-Sol.: 3.4
[2]
  DAP in Broth: 7.7

## C/C=C(\C)C(=O)O[C@H]1[C@H](O)[C@]2(CO)[C@H](O)C[C@]3(C)C(=CCC4[C@@]5(C)CC[C@H](O[C@@H]6O[C@H](C(=O)O)C(O[C@@H]7O[C@H](CO)[C@@H](O)[C@H](O)[C@H]7O)[C@H](O)[C@H]6O[C@@H]6O[C@H](CO)[C@@H](O)[C@H](O)[C@H]6O)[C@](C)(CO)C5CC[C@]43C)[C@@H]2CC1(C)C (stereo partly shown) [Compound 34, Aesculioside A]
[1]
  DAP in Na-Sol.: 3.9
[2]
  DAP in Broth: 7.7

## C=CC(C)(O)CC/C=C(\C)C(=O)OC1C(OCC2OC(OC(=O)C34CCC(C)(C)CC3C3=CCC5C6(C)CCC(OC7OC(COC8OCC(O)C(O)C8OC8OCC(O)C(O)C8O)C(O)C(O)C7O)C(C)(C)C6CCC5(C)C3(C)CC4O)C(OC3OC(C)C(OC4OCC(O)C(OC5OCC(O)C(O)C5O)C4O)C(O)C3O)C(OC(=O)/C(C)=C/CCC(C)(O)C=C)C2O)OC(C)C(O)C1O (stereo not shown) [Compound 35]
[1]
  DAP in Na-Sol.: 3.7
[2]
  DAP in Broth: 8.1

## CC1CCC2(OC1)OC1CC3C4CCC5CC(OC6OC(CO)C(OC7OC(CO)C(O)C(OC8OC(CO)C(O)C(OC9OCC(O)C(O)C9O)C8O)C7O)C(OC7OCC(O)C(O)C7O)C6O)CCC5(C)C4CC(=O)C3(C)C1C2C (stereo not shown) [Compound 37]
[1]
  DAP in Na-Sol.: 3.7
[2]
  DAP in Broth: 8.1

## CC(=O)OC1C(O)COC(OC2C(O)C(C)OC(OC(C)(CCC=C(C)C)C3C(O)CC4(C)C3CCC3C5(C)CCC(OC6OCC(O)C(O)C6O)C(C)(C)C5CCC34C)C2O)C1O (stereo not shown) [Compound 38]
[1]
  DAP in Na-Sol.: 3.9
[2]
  DAP in Broth: 8.1

## O=C(O)/C=C/c1ccc(O)c2c1C(C(=O)OC(Cc1ccc(O)c(O)c1)C(=O)O)C(c1ccc(O)c(O)c1)O2 (stereo not shown) [Compound 40, a 3-benzofurancarboxylic ester]
[1]
  DAP in Na-Sol.: 3.5
[2]
  DAP in Broth: 7.8

## C[C@@H]1C[C@@H]2O[C@@]3(O[C@@H]2C(C)(C)O)C(O)[C@@]2(C)C4CCC5C(C)(C)[C@@H](OC6OC[C@H](O)[C@@H](O)[C@@H]6O)CC[C@@]56C[C@@]46CC[C@]2(C)C13 (stereo partly drawn) [Compound 41, Cimigoside; b-D-Xylopyranoside]
[1]
  DAP in Na-Sol.: 3.9
[2]
  DAP in Broth: 7.5

## CC1(C)CC[C@]2(C(=O)O)CC[C@]3(C)C(=CCC4[C@@]5(C)C[C@@H](O)[C@H](O)C(C)(C)C5CC[C@]43C)C2C1 (stereo partly shown) [Compound 42, Maslinic acid, Crategolic acid]
[1]
  DAP in Na-Sol.: 3.1
[2]
  DAP in Broth: 8.1

## C[C@H]1[C@H](C)CC[C@]2(C(=O)O)CC[C@]3(C)C(=CC[C@@H]4[C@@]5(C)CC[C@H](O)C(C)(C)[C@@H]5CC[C@]43C)[C@H]12 [Compound 43, Ursolic acid]
[1]
  DAP in Na-Sol.: 3.7
[2]
  DAP in Broth: 8.0

## COc1cc2c(c(OC)c1OC)-c1c(cc3c(c1OC)OCO3)C[C@H](C)[C@@](C)(O)C2 [Compound 44, Schizandrol B; Gomisin A]
[1]
  DAP in Na-Sol.: 3.8
[2]
  DAP in Broth: 8.6

## COc1cc(O)c(C(/C=C/CC(O)CCc2ccc(O)cc2)c2ccc(O)cc2)c2c1C(=O)CC(c1ccc(O)cc1)O2 (stereo not shown) [Compound 50, Epicalyxin C]
[1]
  DAP in Na-Sol.: 4

## C/C(=C\CC/C(C)=C/CC[C@@H]1[C@@]2(C)CCC(=O)C(C)(C)C2CC[C@@]1(C)O)CC/C=C(\C)C(=O)O (stereo partly shown) [Compound 52, Myrrhanone B]
[1]
  DAP in Na-Sol.: 3.6

## O=c1c2ccccc2nc2n1CCc1c-2[nH]c2ccccc12 [Compound 57, Rutaecarpine]
[1]
  DAP in Na-Sol.: 3.1

## COc1c(CC=C(C)C)c(=O)[nH]c2ccccc12 [Compound 61, Atanine]
[1]
  DAP in Na-Sol.: 3.6

## C/C=C1\C(=O)CC2C3CCC4=CC(=O)CC[C@]4(C)C3CCC12C (stereo partly shown) [Compound 75, (Z)-Guggulsterone]
[1]
  DAP in Na-Sol.: 3.6

## C=C1C(=O)OC2CC3(C)CCCC(C)C3=CC12 (stereo not shown) [Compound 80a, Alantolactone]
[1]
  DAP in Na-Sol.: 3.9

## C=C1C(=O)O[C@@H]2C[C@@]3(C)CCCC(=C)[C@@H]3C[C@H]12 [Compound 80b, Isoalantolactone]
[1]
  DAP in Na-Sol.: 3.9

## CCC=CCC=CC=CC(O)CCCCCCCC(=O)O (stereo not shown) [Compound 85, 9-hydroxy-10,12,15-Octadecatrienoic acid]
[1]
  DAP in Na-Sol.: 2.9

## C=CC(C)(CC/C=C(\C)CC/C=C(\C)CC/C=C(/C)COC1OC(C)C(O)C(OC2OC(COC3OC(C)C(O)C(O)C3OC(=O)/C(C)=C/CC/C(C)=C/CC/C(C)=C/CCC(C)(C=C)OC3OC(CO)C(O)C(O)C3OC3OC(CO)C(O)C(O)C3O)C(O)C(O)C2O)C1O)OC1OC(CO)C(O)C(O)C1OC1OC(CO)C(O)C(O)C1O (stereo not shown) [Compound 91, Capsianoside E]
[1]
  DAP in Na-Sol.: 3.7

## C=CC(C)(CC/C=C(\C)CC/C=C(\C)CC/C=C(/C)COC1OC(C)C(O)C(OC2OC(COC3OC(C)C(O)C(O)C3OC(=O)/C(C)=C/C(O)C/C(C)=C/CC/C(C)=C/CCC(C)(C=C)OC3OC(CO)C(O)C(O)C3OC3OC(CO)C(O)C(O)C3O)C(O)C(O)C2O)C1O)OC1OC(CO)C(O)C(O)C1OC1OC(CO)C(O)C(O)C1O (stereo not shown) [Compound 92, Capsianoside D]
[1]
  DAP in Na-Sol.: 4

## C=C1C2CCC3C4(C)CCCC(C)(C(=O)O)C4CCC3(C2)C1OC(C)=O (stereo not shown) [Compound 94, Xylopic acid]
[1]
  DAP in Na-Sol.: 4.2
